A short description of the data set: Incubation of peptide drugs on human skin. Type of data set: in vitro ADME. From the text: Effects of proteases on in vivo or in vitro transdermal delivery has been reported for vasopressin and vasopressin analogues (Morimoto et al., Int. Journal Pharmaceutics 81: 119-125, 1992), des-enkephalon-γ-endorphin (Bodde et al., Biochem. Soc. Trans. 17: 943-945, 1989), leucine enkephalin (Choi at al., 1990), and salmon calcitonin (SCT) (Morimoto et al., J. Pharm. Pharmacol. 44; 216-218, 1992). This was concluded because addition of protease inhibitors appear to enhance delivery as determined by increased biological effect of the peptides. For example, camostat mesilate (a serine protease inhibitor) increased the hypocalcemic effect of iontophoretically-delivered SCT (Morimoto, J. Pharm. Pharmacol. 1992) and the antidiuretic effects of vasopressin delivered iontophoretically in rats (Morimoto, Int. Journal Pharmaceutics, 1992). We have observed that incubation of insulin analogues or SCT on human skin results in degradation, which supports the notion that proteolysis accounts for previously observed losses of these peptide drugs during iontophoretic delivery.

Take salmon calcitonin [SCT]: the “result of incubation on human skin” value is “degradation”.
